Experiments:
[1] = system: HCT116; assay: In vitro cell viability combination assay (CellTiter-Glo); conditions: agent combined with MLN4924, vehicle PBS, 48 hr
Experimental: (§7) General Method: Cells are grown in their respective growth media, supplemented with 10% fetal bovine serum unless otherwise noted. […] A portion of each plate is used for positive controls (no agent is added), while another portion of each plate is used for negative controls (no cells are added). Viability is assessed with CellTiter-Glo® Cell Viability reagent used according to manufacturer's instructions (Promega). Luminescence is measured using a LEADseeker imaging system (GE Healthcare).
(§8) The viability data is normalized separately for each plate by scaling the data so that the median of the negative controls is 0 and the median of the positive controls is 100. More formally,
(§9) [formula] where Vi is the normalized viability of the i^th well, Ui is the raw viability measurement, median (U) is the median of the negative controls, and median (U+) is the median of the positive controls. After normalization, the controls are discarded.
(§10) where E1, E2, E3, E4, I1, I2, I3, S1, S2, S3, and S4 are parameters, CA and CB are the respective concentrations of agents A and B, and V is the normalized viability measurement. It is assumed that the error values are independent and identically distributed normal random variables.
(§11) The Combination Index is computed based on an isobologram, which is a slice of the dose response surface with constant viability. For the present analysis, the 50% isobologram, which is the dose contour that has 50% viability, is used. […] Since the choice of (DA, DB) can be arbitrary, the constraint DA/DB=EC50A/EC50B is used.
(§12) In such cases, Nonlinear Blending can be used as an alternative measure of synergy or additivity. Nonlinear Blending is found by considering a slice of the dose response surface that intersects both concentration axes and runs parallel to the viability axis. Let VA and VB be the viability where the slice intersects the drug A and B axes, respectively. Let Vmax and Vmin be the maximum and minimum viabilities along the slice. Let NLBS=min(VA,VB)−Vmin NLBA=Vmax−max(VA,VB) Define the Nonlinear Blending value to be NLBS if NLBS>NLBA and −NLBA otherwise.
(§13) After completing the analysis of individual plates, the results are combined across the replicates. For a given measure and a set of replicates, the overall mean and standard error are computed using weighted averaging. A null mean, which corresponded to an additive effect, is then compared with the overall mean. The null mean is 1 for the Combination Index and 0 for Nonlinear Blending. Next, a two sized Z-test is performed based on the estimated mean and standard error. This produces a p-value for each measure and each cell line.
(§14) After computing the mean, standard error, and p-value for each set of replicates, these values require interpretation. Thus, a standard procedure is used to produce a classification (synergy, additivity, subadditivity, antagonism, or inconclusive) in each case. If the Combination Index exists for more than half of the replicates, then these measures are used to make the classification.
(§15) Consider the case where the Combination Index is used to make the classification. If the p-value is greater than 0.05, the estimate for the Combination Index is not statistically different from 1. However, if the standard error is also very large, then the estimate is too uncertain to be informative. […] Otherwise, the classification is “Additivity”. When the p-value is less than 0.05, the estimate for the Combination Index is statistically different from 1. However, if the mean is still close to 1, then the difference is not of practical significance. Thus, the result is classified based on the mean. A mean in the range (0.8, 1.2) is considered close enough to 1 to be classified as Additivity. A mean in the range (0, 0.8) is considered low enough to be classified as Synergy. […] The threshold value of 2 can be derived from the definition of the Combination Index.

[2] = system: NCI-H209; assay: as above; conditions: agent combined with MLN4924, vehicle DMSO, 96 hr
Experimental: as §7, §8, §9, §10, §11, §12, §13, §14, §15

[3] = system: A549; assay: as above; conditions: agent combined with MLN4924, vehicle PBS, 72 hr
Experimental: as §7, §8, §9, §10, §11, §12, §13, §14, §15

[4] = system: NCI-H82; assay: as above; conditions: agent combined with MLN4924, vehicle DMSO, 96 hr
Experimental: as §7, §8, §9, §10, §11, §12, §13, §14, §15

[5] = system: LU1143 xenograft model; assay: Combination of docetaxel or carboplatin and MLN4924 in LU1143 xenograft model; format: in vivo, mice; conditions: 50 mg/kg carboplatin QW IP
Experimental: (§1) Docetaxel (Henry Schein, Inc., Pittsburgh Pa., Qilu Pharmaceutical Co., Ltd., Jinan, Shandong, China, and Sanofi-Aventis) is formulated in 0.9% saline and administered by intravenous injection (IV) once weekly (QW) at 5 mg/kg or 10 mg/kg.
(§2) Carboplatin (CARBOplatin Injection, Hospira, Inc., Qilu Pharmaceutical Co., Ltd. Jinan, Shandong, China, and Teva Gry-Pharma GmbH, Ulm, Germany) is formulated in 0.9% saline and administered by IP injection once weekly (QW) at 50 mg/kg. The once weekly schedule is also described as every 7 days (Q7D).
(§3) Tumors are measured twice weekly using a vernier caliper. Tumor volumes are calculated using standard procedures (0.5×(length×width^2)). […] Tumor size and body weight are measured approximately twice a week for the duration of the study. Mice are euthanized when their tumor volume reached 10% of their body weight, or when the average tumor volume of a treatment or control group reached approximately 2000 mm^3. Tumor growth continued to be monitored after the dosing period in some studies. Average tumor volume is reported as a function of time for selected groups of selected studies in Figures A, B, and C.
Measurements from day 0 to 18, 21 or 22 are analyzed as specified in Tables 4-9. All tumor volumes have a value of 1 added to them before log10 transformation. For each animal, the log tumor volume at day 0 is subtracted from the log tumor volume on the subsequent days. This difference vs. time is used to calculate an area under the curve (AUC) for each animal using the trapezoid rule. […] The synergy score for the combination of agents A and B is defined as 100*(mean(AUCAB)−mean(AUCA)−mean(AUCB)+mean(AUCctl))/mean(AUCctl): where AUCAB, AUCA, AUCB, and AUCctl are the AUC values for animals in the combination group, the A group, the B group, and the control group, respectively. The standard error of the synergy score is computed based on the variation in the AUC values among the animals. […] If the P-value is above 0.05, then the combination is considered to be additive. […]

[6] = system: NCI-H69 xenograft model; assay: Combination of carboplatin and MLN4924 in NCI-H69 xenograft model; format: in vivo, mice
Experimental: NCI-H69 or NCI-H82 small cell lung tumor fragments (30- to 40-mg) are implanted into the subcutaneous space in the area of the right flank of NCr nu/nu mice (7-10 weeks, Charles River Laboratories, Inc, Frederick Md. or Wilmington, Mass.) using a 12-gauge trocar.
as §2, §3
(§4) Measurements from day 0 to 18, 21 or 22 are analyzed as specified in Tables 4-9. All tumor volumes have a value of 1 added to them before log10 transformation. For each animal, the log tumor volume at day 0 is subtracted from the log tumor volume on the subsequent days. This difference vs. time is used to calculate an area under the curve (AUC) for each animal using the trapezoid rule. […] The synergy score for the combination of agents A and B is defined as 100*(mean(AUCAB)−mean(AUCA)−mean(AUCB)+mean(AUCctl))/mean(AUCctl): where AUCAB, AUCA, AUCB, and AUCctl are the AUC values for animals in the combination group, the A group, the B group, and the control group, respectively. The standard error of the synergy score is computed based on the variation in the AUC values among the animals. […] If the P-value is above 0.05, then the combination is considered to be additive. If the P-value is below 0.05, and the synergy score is less than zero, then the combination is considered to be synergistic. […] Otherwise, the combination is classified as antagonistic.

[7] = system: NCI-H1703; assay: In vitro cell viability combination assay (CellTiter-Glo); format: cell-based; conditions: agent combined with MLN4924, vehicle PBS, 72 hr
Description: (§5) After normalization, the controls are discarded.
(§6) Otherwise, the classification is “Additivity”.

[8] = system: NCI-H1299; assay: as above; format: cell-based; conditions: agent combined with MLN4924, vehicle PBS, 72 hr
Description: as §5, §6

[9] = system: NCI-H2170; assay: as above; format: cell-based; conditions: agent combined with MLN4924, vehicle PBS, 72 hr
Description: as §5, §6

[10] = system: NCI-H69; assay: as above; format: cell-based; conditions: agent combined with MLN4924, vehicle DMSO, 96 hr
Description: as §5, §6

[11] = system: CALU-1; assay: as above; format: cell-based; conditions: agent combined with MLN4924, vehicle PBS, 72 hr
Description: as §5, §6

[12] = system: NCI-H596; assay: as above; format: cell-based; conditions: agent combined with MLN4924, vehicle PBS, 72 hr
Description: as §5, §6

[13] = system: CHAGO-K-1; assay: as above; format: cell-based; conditions: agent combined with MLN4924, vehicle PBS, 72 hr
Description: as §5, §6

[14] = system: LK-2; assay: as above; format: cell-based; conditions: agent combined with MLN4924, vehicle PBS, 72 hr
Description: as §5, §6

[15] = system: SK-MES-1; assay: as above; format: cell-based; conditions: agent combined with MLN4924, vehicle PBS, 72 hr
Description: as §5, §6

[16] = system: VMRC-LCP; assay: as above; format: cell-based; conditions: agent combined with MLN4924, vehicle PBS, 72 hr
Description: as §5, §6

[17] = system: NCI-H520; assay: as above; format: cell-based; conditions: agent combined with MLN4924, vehicle PBS, 72 hr
Description: as §5, §6

[18] = system: KNS-62; assay: as above; format: cell-based; conditions: agent combined with MLN4924, vehicle PBS, 72 hr
Description: as §5, §6

[19] = system: HARA; assay: as above; format: cell-based; conditions: agent combined with MLN4924, vehicle PBS, 72 hr
Description: as §5, §6

[20] = system: RERF-LC-SQ1; assay: as above; format: cell-based; conditions: agent combined with MLN4924, vehicle PBS, 72 hr
Description: as §5, §6

[21] = system: LUDLU-1; assay: as above; format: cell-based; conditions: agent combined with MLN4924, vehicle PBS, 72 hr
Description: as §5, §6

[22] = system: LC-1-SQ; assay: as above; format: cell-based; conditions: agent combined with MLN4924, vehicle PBS, 72 hr
Description: as §5, §6

[23] = system: SW900; assay: as above; format: cell-based; conditions: agent combined with MLN4924, vehicle PBS, 72 hr
Description: as §5, §6

[24] = system: SW1573; assay: as above; format: cell-based; conditions: agent combined with MLN4924, vehicle PBS, 72 hr
Description: as §5, §6

[25] = system: EBC-1; assay: as above; format: cell-based; conditions: agent combined with MLN4924, vehicle PBS, 72 hr
Description: as §5, §6

[26] = system: NCI-H510; assay: as above; conditions: agent combined with MLN4924, vehicle DMSO, 96 hr
Experimental: as §7, §8, §9, §10, §11, §12, §13, §14, §15

[27] = system: LXFE409 xenograft model; assay: Combination of docetaxel or carboplatin and MLN4924 in LXFE409 xenograft model; format: in vivo, mice; conditions: LXFE409 xenograft; 50 mg/kg carboplatin QW IP
Experimental: LXFE409 squamous non small cell lung cancer tumor fragments are implanted into the subcutaneous space in the flank of female NMRI nu/nu mice (5-7 weeks, Janvier Labs, Saint Berthevin, France).
as §1, §2, §3, §4

[28] = system: NCI-H526; assay: In vitro cell viability combination assay (CellTiter-Glo); conditions: agent combined with MLN4924, vehicle DMSO, 96 hr
Experimental: as §7, §8, §9, §10, §11, §12, §13, §14, §15

Question: `N.N.O=C([O-])C1(C(=O)[O-])CCC1.[Pt+2]` [carboplatin] was tested. Which “Combination Index” value [1] did it give?
Answer: The value was 0.71 ± 0.03.

Question: What about the “Nonlinear Blending” value [1] of the same compound?
Answer: The value was 19 ± 2.

Question: And the “Combination Index” value [2]?
Answer: Its value is 1.00 ± 0.06.

Question: And the “Nonlinear Blending” value [2]?
Answer: The value was −1 ± 1.

Question: And the “Combination Index” value [3]?
Answer: The value was 0.72 ± 0.05.

Question: What about the “Nonlinear Blending” value [3] of the same compound?
Answer: The value was 8 ± 4.

Question: And the “Combination Index” value [4]?
Answer: Its value is 0.65 ± 0.1.

Question: What about the “Nonlinear Blending” value [4] of the same compound?
Answer: The value was 12 ± 2.

Question: And the “average tumor volume day 21” value [5]?
Answer: Its value is 658.7 mm^3.

Question: What about the “average tumor volume day 21” value ([6]; 50 mg/kg carboplatin QW IP) of the same compound?
Answer: The value was 501.3 mm^3.

Question: What about the “tumor growth during the treatment period (in words)” value ([6]; FIG. 3, MLN4924 SC 120 mg/kg BID Q3Dx2/week, carboplatin 50 mg/kg IP QW, single agents or their combination) of the same compound?
Answer: The value was “inhibited tumor growth compared to the control vehicle group”.

Question: And the “Combination Index” value [7]?
Answer: Its value is 1.31 ± 0.02.

Question: And the “Nonlinear Blending” value [7]?
Answer: Its value is −23 ± 2.

Question: And the “Combination Index” value [8]?
Answer: Its value is 1.10 ± 0.05.

Question: And the “Nonlinear Blending” value [8]?
Answer: The value was −8 ± 2.

Question: What about the “Combination Index” value [9] of the same compound?
Answer: Its value is 1.38 ± 0.1.

Question: What about the “Nonlinear Blending” value [9] of the same compound?
Answer: Its value is −19 ± 7.

Question: And the “Combination Index” value [10]?
Answer: Its value is 1.18 ± 0.09.

Question: What about the “Nonlinear Blending” value [10] of the same compound?
Answer: Its value is −5 ± 1.

Question: What about the “Combination Index” value [11] of the same compound?
Answer: The value was 0.78 ± 0.05.

Question: What about the “Nonlinear Blending” value [11] of the same compound?
Answer: Its value is 11 ± 6.

Question: What about the “Combination Index” value [12] of the same compound?
Answer: Its value is 0.59 ± 0.1.

Question: What about the “Nonlinear Blending” value [12] of the same compound?
Answer: Its value is 10 ± 7.

Question: And the “Combination Index” value [13]?
Answer: Its value is 0.88 ± 0.03.

Question: What about the “Nonlinear Blending” value [13] of the same compound?
Answer: The value was 11 ± 1.

Question: And the “Combination Index” value [14]?
Answer: The value was 0.66 ± 0.05.

Question: What about the “Nonlinear Blending” value [14] of the same compound?
Answer: The value was 15 ± 2.

Question: What about the “Combination Index” value [15] of the same compound?
Answer: Its value is 1.32 ± 0.06.

Question: And the “Nonlinear Blending” value [15]?
Answer: Its value is −22 ± 4.

Question: What about the “Combination Index” value [16] of the same compound?
Answer: The value was 1.00 ± 0.04.

Question: And the “Nonlinear Blending” value [16]?
Answer: Its value is −3 ± 1.

Question: What about the “Nonlinear Blending” value [17] of the same compound?
Answer: The value was 9 ± 20.

Question: What about the “Combination Index” value [18] of the same compound?
Answer: The value was 0.82 ± 0.1.

Question: And the “Nonlinear Blending” value [18]?
Answer: Its value is 10 ± 5.

Question: What about the “Combination Index” value [19] of the same compound?
Answer: Its value is 1.06 ± 0.1.

Question: What about the “Nonlinear Blending” value [19] of the same compound?
Answer: The value was −3 ± 10.

Question: What about the “Combination Index” value [20] of the same compound?
Answer: Its value is 0.77 ± 0.06.

Question: And the “Nonlinear Blending” value [20]?
Answer: The value was 11 ± 1.

Question: And the “Combination Index” value [21]?
Answer: The value was 0.84 ± 0.2.

Question: What about the “Nonlinear Blending” value [21] of the same compound?
Answer: The value was 5 ± 5.

Question: And the “Combination Index” value [22]?
Answer: The value was 0.51 ± 0.04.

Question: What about the “Nonlinear Blending” value [22] of the same compound?
Answer: Its value is 28 ± 2.

Question: What about the “Combination Index” value [23] of the same compound?
Answer: The value was 0.85 ± 0.06.

Question: What about the “Nonlinear Blending” value [23] of the same compound?
Answer: The value was 10 ± 1.

Question: What about the “Nonlinear Blending” value [24] of the same compound?
Answer: Its value is 6 ± 5.

Question: And the “Combination Index” value [25]?
Answer: Its value is 1.24 ± 0.06.

Question: And the “Nonlinear Blending” value [25]?
Answer: The value was −7 ± 1.

Question: What about the “Combination Index” value [26] of the same compound?
Answer: The value was 0.81 ± 0.08.

Question: What about the “Nonlinear Blending” value [26] of the same compound?
Answer: Its value is 5 ± 2.

Question: What about the “average tumor volume day 21” value [27] of the same compound?
Answer: Its value is 204.4 mm^3.

Question: And the “Combination Index” value [28]?
Answer: The value was 1.02 ± 0.1.

Question: What about the “Nonlinear Blending” value [28] of the same compound?
Answer: Its value is 0 ± 2.

Source: patent US10786505B2, “Administration of NEDD8-activating enzyme inhibitor and chemotherapeutic agents” (Millennium Pharmaceuticals, Inc., priority 2013, dated 2020)
